Test results as given in paper PMC11695783 (Frontiers in Pharmacology, 2024).

Experiments:
[1] = test system: Mycoplasma pneumoniae strain M129 (ATCC 29342); assay: Time-kill curves; assay type: cell-based; parameters: M. pneumoniae count in time-kill curve: unit not given here
Method in brief: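 Strain grown at 37 °C, 5% CO2 in modified SP-4 broth (pH 7.4, 20% FBS). Cultures incubated 72 h, sampled every 12 h, 10-fold serially diluted and plated on SP-4 agar; colonies counted after 7 d. Three repeats.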

[2] = test system: ICR strain mice; assay: Acute toxicity study, oral gavage; assay type: in vivo
Experimental: Twenty four male and female SPF-grade ICR strain mice were randomly divided into 6 groups of 4 mice each. Compound 16C was dissolved in DMSO at doses of 0, 8, 40, 200, 1,000, and 5,000 mg/kg and was administered to the mice by gavage.
(§1) Ten mice were gavaged with 5,000 mg/kg of compound 16C and another 10 mice were given DMSO orally as a control. The mice were fed and watered ad libitum. The animals’ appearance, diet, behavior, and death were observed and recorded for 14 consecutive days after administration. The LD50 was calculated as previously described ([Xiao et al., 2019]), and the test was repeated twice. To assess the acute toxicity of intramuscular administration in mice, we repeated the above experiment and replaced gavage with intramuscular injection.

[3] = test system: A549; parameters: method as in PMID 26150841; details: A549, 8 μg/mL, compared with the control drugs; ref [30]; cited from earlier work
[4] = test system: RAW 264.7; parameters: method as in PMID 26150841; details: RAW 264.7, 8 μg/mL, compared with the control drugs; ref [30]; cited from earlier work
[5] = test system: ICR strain mice; assay: Acute toxicity study, intramuscular injection; assay type: in vivo
Experimental: as §1

[6] = test system: bronchial epithelial cell line 16HBE; parameters: method as in PMID 26150841; details: ref [30]; cited from earlier work

With C=CC1(C)CC(OC(=O)CSc2ccc(NC(=O)Cc3ccc([N+](=O)[O-])cc3)cc2)C2(C)C(C)CCC3(CCC(=O)C32)C(C)C1O (centres unmarked) [compound 16C, 22–((4-((4-nitrophenyl)acetamido)phenyl)thio)deoxypleuromutilin] the “M. pneumoniae count in time-kill curve” value ([1]; 1×MIC, time 0) was 7.809, the “M. pneumoniae count in time-kill curve” value ([1]; 1×MIC, time 12) was 7.011 and the “M. pneumoniae count in time-kill curve” value ([1]; 1×MIC, time 24) was 6.5256. The “M. pneumoniae count in time-kill curve” value ([1]; 1×MIC, time 36) was 6.341, the “M. pneumoniae count in time-kill curve” value ([1]; 1×MIC, time 48) was 6.63 and the “M. pneumoniae count in time-kill curve” value ([1]; 1×MIC, time 60) was 6.334. For the same molecule, the “M. pneumoniae count in time-kill curve” value ([1]; 1×MIC, time 72) was 5.5397, the “reduction of bacterial counts” value ([1]; 1–4 × MIC, 72 h) was 2.27–2.60 log10 CFU/mL and the “M. pneumoniae count in time-kill curve” value ([1]; 2×MIC, time 0) was 7.809. The “M. pneumoniae count in time-kill curve” value ([1]; 2×MIC, time 12) was 6.901, the “M. pneumoniae count in time-kill curve” value ([1]; 2×MIC, time 24) was 6.35 and the “M. pneumoniae count in time-kill curve” value ([1]; 2×MIC, time 36) was 6.074. The “M. pneumoniae count in time-kill curve” value ([1]; 2×MIC, time 48) was 6.197, the “M. pneumoniae count in time-kill curve” value ([1]; 2×MIC, time 60) was 5.9 and the “M. pneumoniae count in time-kill curve” value ([1]; 2×MIC, time 72) was 5.211. The “M. pneumoniae count in time-kill curve” value ([1]; 4×MIC, time 0) was 7.247, the “M. pneumoniae count in time-kill curve” value ([1]; 4×MIC, time 12) was 6.539 and the “M. pneumoniae count in time-kill curve” value ([1]; 4×MIC, time 24) was 6.026. For the same molecule, the “M. pneumoniae count in time-kill curve” value ([1]; 4×MIC, time 36) was 5.763, the “M. pneumoniae count in time-kill curve” value ([1]; 4×MIC, time 48) was 5.628 and the “M. pneumoniae count in time-kill curve” value ([1]; 4×MIC, time 60) was 5.61. The “M. pneumoniae count in time-kill curve” value ([1]; 4×MIC, time 72) was 4.889, the “M. pneumoniae count in time-kill curve” value ([1]; 8×MIC, time 0) was 7.429 and the “M. pneumoniae count in time-kill curve” value ([1]; 8×MIC, time 12) was 7.7. For the same molecule, the “M. pneumoniae count in time-kill curve” value ([1]; 8×MIC, time 24) was 5.719, the “M. pneumoniae count in time-kill curve” value ([1]; 8×MIC, time 36) was 4.474 and the “M. pneumoniae count in time-kill curve” value ([1]; 8×MIC, time 48) was 3.799. The “M. pneumoniae count in time-kill curve” value ([1]; 8×MIC, time 60) was 3, the “M. pneumoniae count in time-kill curve” value ([1]; 8×MIC, time 72) was 3.001 and the “M. pneumoniae count in time-kill curve” value ([1]; 16×MIC, time 0) was 7.247. For the same molecule, the “M. pneumoniae count in time-kill curve” value ([1]; 16×MIC, time 12) was 7.508, the “M. pneumoniae count in time-kill curve” value ([1]; 16×MIC, time 24) was 4.094 and the “M. pneumoniae count in time-kill curve” value ([1]; 16×MIC, time 36) was 3.774. For the same molecule, the “M. pneumoniae count in time-kill curve” value ([1]; 16×MIC, time 48) was 3.36, the “M. pneumoniae count in time-kill curve” value ([1]; 16×MIC, time 60) was 2.9656 and the “M. pneumoniae count in time-kill curve” value ([1]; 16×MIC, time 72) was 2.848. For the same molecule, the “M. pneumoniae count in time-kill curve” value ([1]; 32×MIC, time 0) was 7.065, the “M. pneumoniae count in time-kill curve” value ([1]; 32×MIC, time 12) was 6.342 and the “M. pneumoniae count in time-kill curve” value ([1]; 32×MIC, time 24) was 6.583. The “M. pneumoniae count in time-kill curve” value ([1]; 32×MIC, time 36) was 4.407, the “M. pneumoniae count in time-kill curve” value ([1]; 32×MIC, time 48) was 3.894 and the “M. pneumoniae count in time-kill curve” value ([1]; 32×MIC, time 60) was 3.568. For the same molecule, the “M. pneumoniae count in time-kill curve” value ([1]; 32×MIC, time 72) was 2.774, the “number of organisms (decreased to the LOD)” value ([1]; 64 × MIC, 72 h exposure) was 2 log10 CFU/mL and the “M. pneumoniae count in time-kill curve” value ([1]; 64×MIC, time 0) was 7.065. The “M. pneumoniae count in time-kill curve” value ([1]; 64×MIC, time 12) was 5.938, the “M. pneumoniae count in time-kill curve” value ([1]; 64×MIC, time 24) was 5.724 and the “M. pneumoniae count in time-kill curve” value ([1]; 64×MIC, time 36) was 3.5819. The “M. pneumoniae count in time-kill curve” value ([1]; 64×MIC, time 48) was 3.199, the “M. pneumoniae count in time-kill curve” value ([1]; 64×MIC, time 60) was 2.961 and the “M. pneumoniae count in time-kill curve” value ([1]; 64×MIC, time 72) was 2. The “concentration at which bactericidal effect was achieved” value ([1]; static time-kill, 72 h) was at least 8 × MIC, the “reduction of bacterial counts” value ([1]; ≥ 8×MIC, 72 h) was over 3 log10 CFU/mL and the “deaths (pre-test)” value ([2]; gavage 8, 40, 200, 1,000, and 5,000 mg/kg in DMSO, observed 14 d) was “no deaths were observed”. The mouse deaths ([2]; oral gavage, single dose of 5,000 mg/kg, after 2 weeks) was “did not result in any mouse deaths”, the LD50 ([2]; oral gavage, single dose, mice, observed 14 d) was > 5,000 mg/kg and the symptoms observed ([2]; single dose of 5,000 mg/kg, oral gavage or intramuscular injection, mice rapidly recovered) was “anorexic symptoms”. The “influence on cell viability” value [3] was “only slight influences on the viability”, the “influence on cell viability” value [4] was “only slight influences on the viability” and the mouse deaths ([5]; single dose of 5,000 mg/kg, after 2 weeks) was “did not result in any mouse deaths”. For the same molecule, the LD50 ([5]; single dose, mice, observed 14 d) was > 5,000 mg/kg and the “influence on cell viability” value [6] was “slightly more affected”.
